According to US11370762B2, “Vinylarene derivative and application” (SHENYANG RESEARCH INSTITUTE OF CHEMICAL INDUSTRY CO., LTD., priority 2017, dated 2022):
Where two headings read alike, the source gives them in different places. Blank lines part the entries; values can stand above or below the compound they belong to.

Tests used:
[1] = target: T1, IDO1 enzyme in Hela cells (Homo sapiens, UniProt P14902); assay: Inhibition of IDO1 enzyme in IFN-γ stimulated Hela cells (kynurenine read at 480 nm); assay type: cell-based; conditions: for inhibition at 0.1 µM: read-out: Inhibition rate (%) 100 nmol; for inhibition at 10 µM: read-out: Inhibition rate (%) 10 μmol; for activity compared with positive control drugs INCB024360 and IN-4 / IC50: Hela cells; for activity compared with positive control drugs INCB024360 and IN-4: IC50 comparison; for IC50: read-out: Inhibition rate IC50 (nmol/L) on IDO1 enzyme activity in Hela cells
T1 construct: endogenous in cells; host or cells: HeLa cells stimulated with human recombinant IFN-γ
T1 sequence (P14902 whole entry): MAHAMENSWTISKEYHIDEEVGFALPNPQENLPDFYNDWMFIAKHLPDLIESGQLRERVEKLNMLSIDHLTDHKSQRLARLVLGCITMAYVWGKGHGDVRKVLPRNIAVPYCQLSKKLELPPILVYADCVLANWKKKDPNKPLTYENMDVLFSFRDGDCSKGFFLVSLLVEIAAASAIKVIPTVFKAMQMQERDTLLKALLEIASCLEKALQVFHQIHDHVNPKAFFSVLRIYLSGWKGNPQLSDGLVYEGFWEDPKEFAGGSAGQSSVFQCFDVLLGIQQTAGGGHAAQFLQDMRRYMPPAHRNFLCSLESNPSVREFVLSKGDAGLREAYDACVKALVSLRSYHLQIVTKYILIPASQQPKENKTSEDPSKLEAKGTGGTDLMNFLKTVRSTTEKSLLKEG

[2] = Oral pharmacokinetic test of compound 55 in rats; assay type: in vivo; conditions: male, Sprague-Dawley, plasma, rat, 30 mg/kg
Method: Pharmacokinetic Test and Results of Compound 55:
12 Male Sprague-Dawley rats were grouped random. The final concentration of compound 55 was 1.5 mg/ml. The drug was dissolved in a solvent system of 10% DMSO, 10% hydrogenated castor oil and […] (compounds were dissolved by DMSO, hydrogenated castor oil and saline in turn by vortex or ultrasound), and the drug solution was given orally (30 mg/kg). The rats were fasted overnight but had free access to water, feeding resumed 4 hours after administration. Blood samples (0.3-0.4 mL) were collected into heparinized tubes by Retinal vein plexus at 0, 0.17, 0.33, 0.67, 1, 2, 4, 7, 10 and 24 hours after administration orally. Tubes were anticoagulated with heparin sodium (5% heparin sodium solution filled EP tube, poured out, dried). 100 uL plasma was obtained by centrifugation (10000 rpm, 3 min) and stored at −20° C. before analysis.

colon cancer CT26 [3] = assay: In vivo pharmacodynamics, anti-colon cancer CT26 activity (oral administration, twice a day); parameters: species or system BALB/c mice; conditions: two weeks
Method: Pharmacodynamic of Some Compounds In Vivo (Oral Administration):
The anti-colon cancer CT26 activity of these compounds was tested in vivo. 1×10^6 CT26 cells were inoculated subcutaneously in the right axillary of BALB/c mice by cell suspension inoculation. When the growth of tumors were clearly observed, 56 moderately tumor size animals were selected and randomly divided into test group, solvent control group and positive drug group, with 8 animals in each group. […] The solvent control group was given the same volume of mixed solvents by oral. The above groups were administered twice a day. The weight of the mice and the length and short diameter of the transplanted tumors were measured three times a week during the administration. The tumor volume (VT), relative volume (RVT) and tumor proliferation rate (T/C %) were calculated. After two weeks of administration, nude mice bearing tumors in each experimental group were executed by neck-lifting method. Solid tumour tissues were completely dissected. The weight of tumors in each experimental group was measured and the growth inhibition rate (%) was calculated.

colon cancer CT26 [4] = assay: In vivo pharmacodynamics, anti-colon cancer CT26 activity (intraperitoneal injection, once daily); conditions: CT26 in BALB/c mice; for Inhibition rate (%) of tumor weight / Tumor weight: 50 mg/kg daily intraperitoneal injection, two weeks; for activity at the end of the experiment compared with other groups: once daily dosing
Method: Pharmacodynamics of Some Compounds In Vivo (Intraperitoneal Injection):
The anti-colon cancer CT26 activity of these compounds was tested in vivo. 1×10^6 CT26 cells were inoculated subcutaneously in the right axillary of BALB/c mice by cell suspension inoculation. When the growth of tumors were clearly observed, 42 moderately tumor size animals were selected and randomly divided into test group, solvent control group and positive drug group, with 6 animals in each group. […] The compound groups were intraperitoneally injected with 50 mg/kg of the compound every day, while the solvent control group was given the same dosage with the same volume of mixed solvent. The weight of the mice and the length and short diameter of the transplanted tumors were measured three times a week during the administration. The tumor volume (VT), relative volume (RVT) and tumor proliferation rate (T/C %) were calculated. After two weeks of administration, nude mice bearing tumors in each experimental group were executed by neck-lifting method. Solid tumour tissues were completely dissected. The weight of tumors in each experimental group was measured and the growth inhibition rate (%) was calculated.

colon cancer CT26 [5] = assay: In vivo pharmacodynamics, anti-colon cancer CT26 activity (oral administration, twice a day); parameters: species or system BALB/c mice; conditions: 50 mg/kg intraperitoneal injection (IP), two weeks
colon cancer CT26 [6] = assay: In vivo pharmacodynamics, anti-colon cancer CT26 activity (intraperitoneal injection, once daily); conditions: 300 mg/kg daily by oral, two weeks, CT26 in BALB/c mice
[7] = literature value, species not stated; cited from earlier work
[8] = 100 nmol compound, IFN-γ stimulated Hela cells, 48 hours
[9] = 10 μmol compound, IFN-γ stimulated Hela cells, 48 hours

inhibition at 0.1 µM [1, 8]: 77.1% | inhibition at 10 µM [1, 9]: 100%
SMILES: CCCCN(CCCC)c1ccc(/C(C)=C/C(=O)O)cc1NC(=O)Cc1ccccc1F [Compound 779]

inhibition at 0.1 µM [1, 8]: 41.5% | inhibition at 10 µM [1, 9]: 100%
SMILES: CCCCN(CCCC)c1ccc(/C(C)=C/C(=O)O)cc1NC(=O)Nc1cccc(Cl)c1 [Compound 1028]

inhibition at 0.1 µM [1, 8]: 21.2% | inhibition at 10 µM [1, 9]: 53.7%
SMILES: CCCCN(CCCC)c1ccc(/C(C)=C/C(=O)OCC)cc1NC(=O)Nc1cccc(Cl)c1 [Compound 1022]

inhibition at 0.1 µM [1, 8]: 71.1% | inhibition at 10 µM [1, 9]: 100%
SMILES: CCCCN(CCCC)c1ccc(/C(C)=C/C(=O)O)cc1NC(=O)Nc1ccccc1Cl [Compound 1027]

inhibition at 0.1 µM [1, 8]: 35.1% | inhibition at 10 µM [1, 9]: 100%
SMILES: CCCCN(CCCC)c1ccc(/C(C)=C/C(=O)OCC)cc1NC(=O)Nc1ccc(Cl)cc1 [Compound 1023]

inhibition at 0.1 µM [1, 8]: 29.6% | inhibition at 10 µM [1, 9]: 72.7%
SMILES: CCCCN(CCCC)c1ccc(/C(C)=C/C(=O)O)cc1NC(=S)Nc1ccccc1 [Compound 1031]

inhibition at 0.1 µM [1, 8]: 42.1% | inhibition at 10 µM [1, 9]: 100%
SMILES: CCCCN(CCCC)c1ccc(/C(C)=C/C(=O)OCC)cc1NC(=O)Nc1ccccc1Cl [Compound 1021]

inhibition at 0.1 µM [1, 8]: 29.5% | inhibition at 10 µM [1, 9]: 58.2%
SMILES: CCCCN(CCCC)c1ccc(/C(C)=C/C(=O)OCC)cc1NC(=O)Nc1ccc(Cl)c(C(F)(F)F)c1 [Compound 1024]

inhibition at 0.1 µM [1, 8]: 24.6% | inhibition at 10 µM [1, 9]: 68.8%
SMILES: CCCCN(CCCC)c1ccc(/C(C)=C/C(=O)OCC)cc1NC(=S)Nc1ccccc1 [Compound 1025]

inhibition at 0.1 µM [1, 8]: 21% | inhibition at 10 µM [1, 9]: 54.3%
SMILES: CCCCN(CCCC)c1ccc(/C(C)=C/C(=O)OCC)cc1NC(=O)Nc1cccc(C)c1 [Compound 1026]

inhibition at 0.1 µM [1, 8]: 100% | inhibition at 10 µM [1, 9]: 100% | IC50 [1]: 0.18 nmol/L
SMILES: CCCCN(CCCC)c1ccc(/C(C)=C\C(=O)O)cc1NC(=O)Nc1ccc(C)cc1F [Compound 14]
Inhibition rate (%) of tumor weight (colon cancer CT26 [3]; 50 mg/kg oral): 37.39% | Tumor weight (colon cancer CT26 [3]; 50 mg/kg oral): 793.38 ± 246.34 mg | Inhibition rate (%) of tumor weight (colon cancer CT26 [4]): 19.02% | Tumor weight (colon cancer CT26 [4]): 2727.33 ± 404.42 mg | activity compared with positive control drugs INCB024360 and IN-4 [1]: can reach or exceed those of the positive control drugs INCB024360 and IN-4

inhibition at 0.1 µM [1, 8]: 74.2% | inhibition at 10 µM [1, 9]: 100%
SMILES: CCCCN(CCCC)c1ccc(/C(C)=C/C(=O)OCC)cc1NC(=O)Cc1ccccc1F [Compound 772]

More lines, now with the values behind:

SMILES: CCCCN(CCCC)c1ccc(/C(C)=C/C(=O)O)cc1NC(=O)Nc1ccc(Cl)c(C(F)(F)F)c1 [Compound 1030]
inhibition at 0.1 µM [1, 8]: 23.8% | inhibition at 10 µM [1, 9]: 100%

SMILES: CCOC(=O)/C=C(\C)c1ccc(N(CC(C)C)CC(C)C)c(NC(=O)Nc2ccc(F)cc2F)c1 [Compound 564, ethyl (E)-3-(3-(3-(2,4-difluorophenyl)ureido)-4-(diisobutylamino)phenyl) but-2-enoate]
inhibition at 0.1 µM [1, 8]: 72.2% | inhibition at 10 µM [1, 9]: 100%

SMILES: C/C(=C/C(=O)O)c1ccc(N(CC(C)C)CC(C)C)c(NC(=O)Nc2ccc(C)cc2)c1 [Compound 51]
activity compared with positive control drugs INCB024360 and IN-4 [1]: can reach or exceed those of the positive control drugs INCB024360 and IN-4 | IC50 [1]: 3.69 nmol/L

SMILES: C/C(=C/C(=O)O)c1ccc(N(CC(C)C)CC(C)C)c(NC(=O)Nc2ccc(F)cc2F)c1 [Compound 55, (Z)-3-(3-(3-(2,4-difluorophenyl)ureido)-4-(diisobutylamino)phenyl)but-2-enoic acid]
AUC [2]: 43700 ng·h/mL | Cmax [2]: 16800 ng/mL | half-life [2]: 300 min | Inhibition rate (%) of tumor weight (colon cancer CT26 [3]; 20 mg/kg oral (low dose)): 12.42% | Tumor weight (colon cancer CT26 [3]; 20 mg/kg oral (low dose)): 1109.75 ± 191.47 mg | Inhibition rate (%) of tumor weight (colon cancer CT26 [3]; 50 mg/kg oral): 27.06% | Tumor weight (colon cancer CT26 [3]; 50 mg/kg oral): 924.25 ± 150.35 mg | Inhibition rate (%) of tumor weight (colon cancer CT26 [3]; 100 mg/kg oral (high dose)): 33.16% | Tumor weight (colon cancer CT26 [3]; 100 mg/kg oral (high dose)): 847.00 ± 305.01 mg | Inhibition rate (%) of tumor weight (colon cancer CT26 [4]): 37.02% | Tumor weight (colon cancer CT26 [4]): 2121.17 ± 343.15 mg | activity at the end of the experiment compared with other groups (colon cancer CT26 [4]): equivalent to that of 1-MT | activity compared with positive control drugs INCB024360 and IN-4 [1]: can reach or exceed those of the positive control drugs INCB024360 and IN-4 | IC50 [1]: 0.09 nmol/L | Inhibition rate (%) of tumor weight (colon cancer CT26 [5]): 34.97% | Tumor weight (colon cancer CT26 [5]): 824.00 ± 161.64 mg

SMILES: CCCCN(CCCC)c1ccc(/C(C)=C\C(=O)O)cc1NC(=O)Nc1ccc(F)cc1F [Compound 13]
inhibition at 0.1 µM [1, 8]: 100% | inhibition at 10 µM [1, 9]: 100% | activity compared with positive control drugs INCB024360 and IN-4 [1]: can reach or exceed those of the positive control drugs INCB024360 and IN-4 | IC50 [1]: 3.69 nmol/L

SMILES: CCCCN(CCCC)c1ccc(/C(C)=C/C(=O)O)cc1NC(=O)Nc1ccc(C)cc1F [Compound 530]
IC50 [1]: 8.26 nmol/L

SMILES: C/C(=C/C(=O)O)c1ccc(N(CC(C)C)CC(C)C)c(NC(=O)Nc2ccc(C)cc2F)c1 [Compound 56]
activity compared with positive control drugs INCB024360 and IN-4 [1]: can reach or exceed those of the positive control drugs INCB024360 and IN-4 | IC50 [1]: 0.13 nmol/L

SMILES: Cn1cc(C[C@@H](N)C(=O)O)c2ccccc21 [Compound 1-MT, 1-methyl-D-tryptophan]
activity at the end of the experiment compared with other groups (colon cancer CT26 [4]): better than that of INCB024360 | Inhibition rate (%) of tumor weight (colon cancer CT26 [6]): 25.5% | Tumor weight (colon cancer CT26 [6]): 2509.17 ± 352.16 mg

SMILES: NS(=O)(=O)NCCNc1nonc1C(=NO)Nc1ccc(F)c(Br)c1 [INCB024360, reference compound]
Inhibition rate (%) of tumor weight (colon cancer CT26 [3]; 50 mg/kg oral): 33.66% | Tumor weight (colon cancer CT26 [3]; 50 mg/kg oral): 840.63 ± 144.34 mg | Inhibition rate (%) of tumor weight (colon cancer CT26 [4]): 10.23% | Tumor weight (colon cancer CT26 [4]): 3026.17 ± 409.75 mg | T1/2 reported in the literature [7]: 2.3 h

SMILES: CCCCN(CCCC)c1ccc(/C(C)=C/C(=O)OCC)cc1NC(=O)Nc1ccc(C)cc1 [Compound 518, ethyl (E)-3-(4-(dibutylamino)-3-(3-(p-tolyl)ureido)phenyl)but-2-enoate]
inhibition at 0.1 µM ([1]; HeLa, 48 h): 76.8% | inhibition at 10 µM ([1]; HeLa, 48 h): 100%
